23 molecules from ChEMBL document CHEMBL4190403, “Design, synthesis, and biological evaluation of pyrazole derivatives containing acetamide bond as potential BRAFV600E inhibitors” (Bioorg Med Chem Lett, 2018) can be followed below.

SMILES strings stand for the structures.

A short description of experiment [1]: Antiproliferative activity against human WM1361 cells harboring wild-type BRAF after 48 hrs by MTT assay. In kind it is functional, cell-based. The following applies: WM1361, 48 h. On the technique in general: Tetrazolium assays rely on reduction of a dye to a coloured formazan, in cell work by metabolically active cells.
The next experiment relates to A-375. Description: Antiproliferative activity against human A375 cells harboring BRAF V600E mutant after 24 hrs by MTT assay. In kind it is functional, cell-based. The following applies: A-375, 24 h.
Another experiment deals with HT-29. Description: Antiproliferative activity against human HT-29 cells harboring BRAF V600E mutant after 24 hrs by MTT assay. In kind it is functional, cell-based. The settings on record: HT-29, 24 h.
The target of experiment [2] is Serine/threonine-protein kinase B-raf (Mus musculus, UniProt P28028, V600E). Description: Inhibition of full-length GST-tagged mouse BRAF V600E mutant using recombinant human full length N-terminal His-tagged MEK1 as substrate preincubated for 1 hr followed by substrate addition measured after 25 mins by Nu-page gel-based phosphor screen analysis.
Chain of Serine/threonine-protein kinase B-raf (P28028 whole entry, looked up, stated change not applied): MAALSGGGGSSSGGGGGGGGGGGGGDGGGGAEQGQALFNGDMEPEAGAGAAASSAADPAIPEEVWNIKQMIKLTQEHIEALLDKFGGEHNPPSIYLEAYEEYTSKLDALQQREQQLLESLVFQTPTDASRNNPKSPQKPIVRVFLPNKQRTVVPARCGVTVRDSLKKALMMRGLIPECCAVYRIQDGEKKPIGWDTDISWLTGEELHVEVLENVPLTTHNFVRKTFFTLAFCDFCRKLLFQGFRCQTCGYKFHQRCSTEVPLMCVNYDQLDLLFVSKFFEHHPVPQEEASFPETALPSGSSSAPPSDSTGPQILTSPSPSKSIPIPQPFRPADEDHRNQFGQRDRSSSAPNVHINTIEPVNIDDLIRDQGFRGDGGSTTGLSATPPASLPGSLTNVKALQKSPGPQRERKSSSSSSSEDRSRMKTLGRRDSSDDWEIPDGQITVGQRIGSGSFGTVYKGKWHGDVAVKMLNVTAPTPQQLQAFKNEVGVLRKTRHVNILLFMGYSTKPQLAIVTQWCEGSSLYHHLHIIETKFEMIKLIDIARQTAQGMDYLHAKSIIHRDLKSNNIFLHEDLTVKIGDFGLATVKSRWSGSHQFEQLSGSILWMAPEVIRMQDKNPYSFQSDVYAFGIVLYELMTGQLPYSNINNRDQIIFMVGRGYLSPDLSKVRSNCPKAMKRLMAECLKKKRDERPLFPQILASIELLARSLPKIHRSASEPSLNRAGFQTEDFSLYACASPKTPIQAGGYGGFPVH

What is called IC50 is the point on the concentration scale where inhibition reaches its midpoint. Regarding `O=C(Cn1ccc2ccccc21)Nc1cnn(Cc2ccccc2)c1`, the IC50 in experiment [1] stood at 26.8 µM; in the experiment with A-375 it was 17.6 µM; in the experiment with HT-29, 12.3 µM; in experiment [2], 1.96 µM.
The corresponding values for `COc1cccc(-n2cc(NC(=O)Cn3ccc4ccccc43)cn2)c1` are 16.5 µM, 5.67 µM, 10.1 µM and 0.46 µM.
Turning to `Cn1cc(NC(=O)Cn2ccc(-c3ccccn3)n2)cn1`, the IC50 worked out at 31.9 µM in experiment [1], 23.7 µM with A-375, 25.4 µM with HT-29 and 2.54 µM in experiment [2].
Take `O=C(Cn1ccc(-c2ccccn2)n1)Nc1cnn(-c2ccccc2)c1`: the IC50 in experiment [1] was 20.7 µM; in the experiment on A-375 it was 10.6 µM; in the experiment on HT-29, 10.8 µM; in experiment [2], 0.53 µM.
Turning to `O=C(Cn1ccc(-c2cccc(Cl)c2)n1)Nc1cnn(Cc2ccccc2)c1`, the IC50 in experiment [1] came to 14.9 µM; in the experiment with A-375 it was 3.26 µM; with HT-29, 5.7 µM; in experiment [2], 0.34 µM.
The matching figures for `CCn1cc(NC(=O)Cn2ccc(-c3cccc(Cl)c3)n2)cn1`: 26.5 µM, 19.4 µM, 12.9 µM and 1.19 µM.
The matching figures for `CCn1cc(NC(=O)Cn2ccc(-c3ccccn3)n2)cn1`: 29.8 µM, 23.3 µM, 26.8 µM and 3.86 µM.
On to `CCn1cc(NC(=O)Cc2ccc(OC)c(OC)c2)cn1`, for which the IC50 in experiment [1] is 31.4 µM; in the experiment with A-375 it was 17.9 µM; in the experiment with HT-29, 25.6 µM; in experiment [2] it was 3.66 µM.
Turning to `COc1ccc(-n2cc(NC(=O)Cn3ccc(-c4ccccn4)n3)cn2)cc1`, the IC50 in experiment [1] worked out at 24.4 µM; in the experiment with A-375, 11.2 µM; with HT-29 it was 11.1 µM; in experiment [2], 0.48 µM.
The matching figures for `COc1ccc(CC(=O)Nc2cnn(C)c2)cc1OC`: 40.3 µM, 18.6 µM, 32.8 µM and 4.43 µM.
Consider `Cn1cc(NC(=O)Cn2ccc3ccccc32)cn1`, for which the IC50 is 36.5 µM in experiment [1], 28.9 µM in the experiment with A-375, 35.1 µM in the experiment with HT-29 and 4.66 µM in experiment [2].
As to `COc1ccc(CC(=O)Nc2cnn(Cc3ccccc3)c2)cc1OC`, the IC50 was determined as 18.8 µM in experiment [1], 10.4 µM in the experiment with A-375, 8.43 µM with HT-29 and 0.5 µM in experiment [2].
On to `Cc1ccc(-n2cc(NC(=O)Cn3ccc4ccccc43)cn2)cc1`, for which the IC50 is 27.4 µM in experiment [1], 24.5 µM with A-375, 24.1 µM in the experiment with HT-29 and 2.34 µM in experiment [2].
Take `COc1cccc(-n2cc(NC(=O)Cn3ccc(-c4ccccn4)n3)cn2)c1`: the IC50 in experiment [1] was found to be 15.7 µM; with A-375 it was 3.08 µM; in the experiment with HT-29, 6.16 µM; in experiment [2], 0.26 µM.
Consider `COc1ccc(CC(=O)Nc2cnn(-c3ccc(C)cc3)c2)cc1OC`, for which the IC50 in experiment [1] was determined as 16.6 µM; in the experiment with A-375 it was 2.74 µM; with HT-29, 8.73 µM; in experiment [2], 0.45 µM.
The matching figures for `COc1ccc(-n2cc(NC(=O)Cn3ccc4ccccc43)cn2)cc1`: 24.8 µM, 19.8 µM, 12.7 µM and 1.28 µM.
Consider `COc1ccc(CC(=O)Nc2cnn(-c3ccccc3)c2)cc1OC`, for which the IC50 in experiment [1] came out at 25.6 µM; in the experiment on A-375, 16.2 µM; in the experiment on HT-29, 11.5 µM; in experiment [2], 0.73 µM.
Regarding `COc1cccc(-n2cc(NC(=O)Cc3ccc(OC)c(OC)c3)cn2)c1`, the IC50 in experiment [1] was 24 µM; with A-375, 3.49 µM; with HT-29, 7.98 µM; in experiment [2], 0.36 µM.
With `O=C(Cn1ccc2ccccc21)Nc1cnn(-c2ccccc2)c1`, the IC50 in experiment [1] is 25.8 µM; with A-375 it was 24.2 µM; in the experiment with HT-29 it was 26.6 µM; in experiment [2], 1.23 µM.
The matching figures for `O=C(Cn1ccc(-c2ccccn2)n1)Nc1cnn(Cc2ccccc2)c1`: 28 µM, 19.8 µM, 12.7 µM and 0.55 µM.
In the case of `Cn1cc(NC(=O)Cn2ccc(-c3cccc(Cl)c3)n2)cn1`, the IC50 was 27.9 µM in experiment [1], 16.8 µM with A-375, 22.6 µM in the experiment on HT-29 and 1.67 µM in experiment [2].
In the case of `CCn1cc(NC(=O)Cn2ccc3ccccc32)cn1`, the IC50 in experiment [1] came out at 47.8 µM; with A-375 it was 27.2 µM; in the experiment with HT-29, 49.9 µM; in experiment [2], 1.82 µM.
Regarding `COc1ccc(-n2cc(NC(=O)Cc3ccc(OC)c(OC)c3)cn2)cc1`, the IC50 in experiment [1] was 17.6 µM; in the experiment with A-375 it was 4.57 µM; with HT-29, 9.33 µM; in experiment [2], 0.41 µM.
